Our source for the EC50, AC50 and IC50 values is ChEMBL document CHEMBL1201862, “PubChem BioAssay data set” (2004).

Each structure is given as a SMILES string. Calls of active or inactive are those of the source. Bounds are passed on as bounds.

Tested on in the first experiment: not listed separately
As to the kind of experiment: growth suppression of PTEN-null colon cells, dose response, cell-based, HCT116 PTEN knockout (AID 1047).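 Note: HCT116 colon tumor cells with PTEN knocked out; cells exposed to compound for 60 hours before readout; potency for loss of cell viability measured by luminescence.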 Format: functional.
As for `CCCNC(=O)c1c(NC(=O)C2COc3ccccc3O2)sc2c1CCCC2` (configuration not stated), the concentration giving a half-maximal response (EC50) was 8.59 µM (active).

Tested on in the next experiment: not listed separately
Put plainly: growth suppression of beta-catenin-knockout colon cells, dose response, cell-based, HCT116, human colon tumor (AID 1045).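 Note: HCT116 colon tumor cells with beta catenin knocked out; cells exposed to compound for 60 hours.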 Format: functional.
On to `CCCNC(=O)c1c(NC(=O)C2COc3ccccc3O2)sc2c1CCCC2` (configuration not stated), for which the EC50 was 9.98 µM (active).

Tested on in the next experiment: not listed separately
As to the kind of experiment: Shn3 3'UTR reporter inhibitors, dose response, cell-based, Clone20 osteoblasts, firefly luciferase, cherry-picked (AID 624132).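 Note: firefly luciferase luminescence from reporter carrying the Shn3 3'UTR in osteoblasts.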 Format: functional.
For `CC(C)CCNC(=O)c1cc2c(O)nc3ccccc3c2s1`, the AC50 was 41.5 µM (active).

Tested on in the next experiment: not listed separately
Put plainly: control 3'UTR Renilla luciferase suppression, dose response, counter-screen for Shn3 inhibitor project, cell-based, Clone20-Shn3RL, cherry-picked (AID 624133). Type of experiment: functional.
Consider `CC(C)CCNC(=O)c1cc2c(O)nc3ccccc3c2s1`, for which the AC50 is 18.4 µM (active).

A further experiment deals with T1, Protein skinhead-1 (Caenorhabditis elegans, UniProt P34707).
T1 sequence (P34707 whole entry): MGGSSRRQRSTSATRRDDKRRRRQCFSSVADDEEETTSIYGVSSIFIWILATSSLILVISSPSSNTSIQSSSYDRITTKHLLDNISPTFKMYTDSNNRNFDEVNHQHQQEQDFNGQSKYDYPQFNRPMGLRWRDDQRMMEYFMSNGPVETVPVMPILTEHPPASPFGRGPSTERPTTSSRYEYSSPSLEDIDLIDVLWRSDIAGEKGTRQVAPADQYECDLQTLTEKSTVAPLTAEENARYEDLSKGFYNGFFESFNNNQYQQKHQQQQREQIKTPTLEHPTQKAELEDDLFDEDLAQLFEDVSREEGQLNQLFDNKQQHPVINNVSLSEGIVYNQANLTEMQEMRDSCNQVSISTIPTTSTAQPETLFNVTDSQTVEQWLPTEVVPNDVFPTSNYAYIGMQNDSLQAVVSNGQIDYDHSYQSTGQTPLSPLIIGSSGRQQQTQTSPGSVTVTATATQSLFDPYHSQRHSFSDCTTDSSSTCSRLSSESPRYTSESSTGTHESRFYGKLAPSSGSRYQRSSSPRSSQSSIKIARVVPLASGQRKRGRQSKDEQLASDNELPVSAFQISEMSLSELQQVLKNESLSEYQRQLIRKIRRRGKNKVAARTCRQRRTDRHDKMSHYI
Assay: not given
Format: functional.
For the compound `Brc1ccc(-c2cn3ccccc3n2)s1`, the concentration for half-maximal inhibition (IC50) was 12.7 µM (active).

As for `COc1cc2nc(C3CC3)n(NC(=O)c3ccc(Cl)cc3)c(=O)c2cc1OC`, the IC50 was > 100 µM (inactive).

As for `CC(=O)N(C1=NCCCS1)c1ccc(F)cc1`, the IC50 was > 100 µM (inactive).

For the compound `CC(C)CC(=O)Nc1ccc(Nc2ccccc2)cc1`, the IC50 was > 100 µM (inactive).

Take `FC(F)(F)c1ccccc1Cc1c(-c2ccccc2)nc2ccc(Br)cn12`: the IC50 is > 100 µM (inactive).

The target in the next experiment is T2, Rac GTPase-activating protein 1 (Homo sapiens, UniProt Q9H0H5).
T2 sequence (Q9H0H5 whole entry): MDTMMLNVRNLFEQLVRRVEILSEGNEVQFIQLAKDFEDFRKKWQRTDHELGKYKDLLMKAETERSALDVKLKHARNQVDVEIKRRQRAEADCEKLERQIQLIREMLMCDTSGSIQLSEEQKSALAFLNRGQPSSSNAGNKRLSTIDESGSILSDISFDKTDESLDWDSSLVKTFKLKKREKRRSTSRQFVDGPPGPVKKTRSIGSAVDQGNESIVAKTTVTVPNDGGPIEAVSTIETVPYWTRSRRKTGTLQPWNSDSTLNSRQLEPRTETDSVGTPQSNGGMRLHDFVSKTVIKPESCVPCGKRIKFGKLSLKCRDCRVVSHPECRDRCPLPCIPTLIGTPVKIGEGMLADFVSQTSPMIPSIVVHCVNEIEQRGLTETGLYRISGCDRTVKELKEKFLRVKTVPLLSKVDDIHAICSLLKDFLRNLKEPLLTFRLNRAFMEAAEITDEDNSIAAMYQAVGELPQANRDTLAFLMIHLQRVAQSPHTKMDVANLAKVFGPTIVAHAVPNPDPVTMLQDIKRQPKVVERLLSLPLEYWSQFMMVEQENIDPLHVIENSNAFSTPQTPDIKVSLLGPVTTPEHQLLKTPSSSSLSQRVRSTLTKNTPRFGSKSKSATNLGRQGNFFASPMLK
As to the kind of experiment: MgcRacGAP GTPase-activating activity inhibitors, confirmation, biochemical, ADP Hunter fluorescence, primary and confirmatory (AID 624330). Type of experiment: functional.
As for `Cc1cc(C)c(OCC(O)CN2CCN(C(=O)c3ccccc3)CC2)c(C)c1` (configuration not stated), the IC50 is 139 µM (active).

For `COc1ccc(N2CC2c2ccncc2)cc1` (configuration not stated), the IC50 was 144 µM (active).

On to `COc1ccc(NC2CCCN(C(=O)CN3CCOC3=O)C2)cc1` (configuration not stated), for which the IC50 was 109 µM (active).

For `CCOC(=O)N1CCC(N2CCN(S(=O)(=O)c3ccc4ccccc4c3)CC2)CC1`, the IC50 is 151 µM (active).

Consider `COc1cc(CN2CCN(C(=O)CC(C)C)CC2)cc(OC)c1O`, for which the half-inhibitory concentration (IC50) is 78.6 µM (active).

Regarding `COc1cc(/C=N/NC(=O)C(=O)N2CCCC2)ccc1O`, the IC50 is 26.7 µM (active).

Tested on in the next experiment: not listed separately
Put plainly: LGR2 antagonists, dose response, cell-based, HEK293, CRE-luciferase reporter, cherry pick, set 2 (AID 743343).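 Note: transfected cells were stimulated with diluted bursicon conditioned medium after compound addition.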 Format: functional.
Regarding `CN(C)c1ccc(C2NC(=O)c3ccccc3N2)cc1` (configuration not stated), the half-maximal activity concentration (AC50) was 7.27 µM (active).

Tested on in another experiment: not listed separately
As to the kind of experiment: MC4R antagonists, dose response, counter-screen for LGR2 antagonist project, cell-based, plate reader, cherry pick (AID 743444).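 Note: transfected HEK 293 cells stimulated with alpha-MSH peptide; potency of inhibitors of the alpha-MSH evoked signal.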 Format: functional.
Take `CN(C)c1ccc(C2NC(=O)c3ccccc3N2)cc1` (configuration not stated): the AC50 is 9.95 µM (active).
